Laboratory results reported in US20100311714A1, “1H-IMIDAZO[4,5-c]QUINOLINONE COMPOUNDS” (priority 2009, published 2010).
Read-outs that look alike come from different tables or passages of the source.

Target: T1, PI3K delta (Homo sapiens, UniProt O00329)
T1 construct: for the full-length p110-d subunit are generated and fused by overlapping PCR; His tag (C); made in house; host or cells: baculovirus BV1060; Tn5 (Trichoplusia ni) or TiniPro insect cells
Test: PI3K delta kinase assay (Kinase-Glo luminescence)
Type: biochemical
Method in brief: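 IC50s derive from 8-point inhibition curves fitted to a 4-parameter logistic model. Reaction: 10 nM purified p110δ/p85 iSH2 fusion, 1 μM ATP, 10 μg/mL PI substrate, pH 7.5 Tris buffer with MgCl2, NaCl, CHAPS and DTT, run 60 min at room temperature; remaining ATP read by Kinase-Glo luminescence.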

T1 sequence (O00329 with tags, fused parts or gaps limits assumed): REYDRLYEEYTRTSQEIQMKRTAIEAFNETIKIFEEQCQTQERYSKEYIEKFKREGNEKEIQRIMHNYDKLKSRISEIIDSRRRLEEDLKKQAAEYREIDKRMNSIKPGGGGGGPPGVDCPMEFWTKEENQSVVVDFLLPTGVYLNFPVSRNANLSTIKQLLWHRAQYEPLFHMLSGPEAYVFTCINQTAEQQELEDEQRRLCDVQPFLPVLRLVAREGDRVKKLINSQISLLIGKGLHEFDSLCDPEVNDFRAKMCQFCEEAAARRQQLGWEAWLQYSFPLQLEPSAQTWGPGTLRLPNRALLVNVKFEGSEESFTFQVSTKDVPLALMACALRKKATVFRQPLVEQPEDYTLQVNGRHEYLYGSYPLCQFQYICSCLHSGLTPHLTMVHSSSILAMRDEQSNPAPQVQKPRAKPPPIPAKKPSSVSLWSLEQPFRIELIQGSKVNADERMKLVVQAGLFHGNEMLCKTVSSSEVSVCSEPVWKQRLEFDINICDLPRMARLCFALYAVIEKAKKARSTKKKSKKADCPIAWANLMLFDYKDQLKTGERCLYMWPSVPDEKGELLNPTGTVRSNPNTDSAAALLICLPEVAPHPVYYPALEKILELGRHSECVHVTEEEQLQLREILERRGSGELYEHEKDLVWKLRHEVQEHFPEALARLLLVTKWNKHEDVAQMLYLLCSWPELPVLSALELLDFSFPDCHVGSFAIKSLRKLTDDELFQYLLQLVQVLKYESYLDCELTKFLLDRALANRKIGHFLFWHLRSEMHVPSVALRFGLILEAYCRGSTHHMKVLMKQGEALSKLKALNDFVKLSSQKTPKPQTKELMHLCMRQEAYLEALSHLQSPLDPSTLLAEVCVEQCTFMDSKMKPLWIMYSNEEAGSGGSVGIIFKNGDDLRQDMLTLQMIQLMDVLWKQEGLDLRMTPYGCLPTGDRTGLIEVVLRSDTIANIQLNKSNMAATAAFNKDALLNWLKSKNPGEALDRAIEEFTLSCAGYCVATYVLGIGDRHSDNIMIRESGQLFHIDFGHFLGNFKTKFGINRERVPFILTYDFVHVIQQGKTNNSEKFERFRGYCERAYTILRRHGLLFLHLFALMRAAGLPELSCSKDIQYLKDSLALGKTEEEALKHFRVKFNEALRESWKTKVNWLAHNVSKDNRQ

`CCNc1cc(-c2ccc3ncc4c(c3c2)n(-c2ccc(N3CCC3)nc2C)c(=O)n4C)cnc1CO` [Example 23.8, 1-(6-Azetidin-1-yl-2-methyl-pyridin-3-yl)-8-(5-ethylamino-6-hydroxymethyl-pyridin-3-yl)-3-methyl-1,3-dihydro-imidazo[4,5-c]quinolin-2-one] gave an IC50 (read-out: EPK_PI3Kdelta/IC50) of 17 nM.
With `CCOc1cc(-c2ccc3ncc4c(c3c2)n(-c2ccc(N3CCC3)nc2C)c(=O)n4C)cnc1COC` [Example 23.5, 1-(6-Azetidin-1-yl-2-methyl-pyridin-3-yl)-8-(5-ethoxy-6-methoxymethyl-pyridin-3-yl)-3-methyl-1,3-dihydro-imidazo[4,5-c]quinolin-2-one] the IC50 (read-out: EPK_PI3Kdelta/IC50) was 25 nM.
Work on `CCOc1ccc(-c2ccc3ncc4c(c3c2)n(-c2cnccc2C)c(=O)n4C)cn1` [Example 4.2, 8-(6-Ethoxy-pyridin-3-yl)-3-methyl-1-(4-methyl-pyridin-3-yl)-1,3-dihydro-imidazo[4,5-c]quinolin-2-one] yielded an IC50 (read-out: PI3Kdelta/IC50) of 401 nM.
`Cc1ncccc1-n1c(=O)n(C)c2cnc3ccc(-c4cncc(N5CCC5)c4)cc3c21` [Example 2.29, 8-(5-Azetidin-1-yl-pyridin-3-yl)-3-methyl-1-(2-methyl-pyridin-3-yl)-1,3-dihydro-imidazo[4,5-c]quinolin-2-one] showed an IC50 (read-out: EPK_PI3Kdelta/IC50) of 504 nM.
Molecule `Cc1ncccc1-n1c(=O)n(C)c2cnc3ccc(-c4cnc(N)c(C(F)(F)F)c4)cc3c21` [Example 2.11, 8-(6-Amino-5-trifluoromethyl-pyridin-3-yl)-3-methyl-1-(2-methyl-pyridin-3-yl)-1,3-dihydro-imidazo[4,5-c]quinolin-2-one] has an IC50 (read-out: PI3Kdelta/IC50) of 12 nM.
For `CCNc1ncc(-c2ccc3ncc4c(c3c2)n(-c2ccc(N3CC[C@@H](O)C3)nc2C)c(=O)n4C)cc1COCC` [Example 34.4, 8-(5-Ethoxymethyl-6-ethylamino-pyridin-3-yl)-1-[6-((R)-3-hydroxy-pyrrolidin-1-yl)-2-methyl-pyridin-3-yl]-3-methyl-1,3-dihydro-imidazo[4,5-c]quinolin-2-one], the IC50 (read-out: EPK_PI3Kdelta/IC50) was 26 nM.
`CNc1ncc(-c2ccc3ncc4c(c3c2)n(-c2ccc(N(C)CCO)nc2C)c(=O)n4C)cn1` [Example 26.2, 1-{6-[(2-Hydroxy-ethyl)-methyl-amino]-2-methyl-pyridin-3-yl}-3-methyl-8-(2-methylamino-pyrimidin-5-yl)-1,3-dihydro-imidazo[4,5-c]quinolin-2-one] gave an IC50 (read-out: EPK_PI3Kdelta/IC50) of 88 nM.
`CNc1ccc(-c2ccc3ncc4c(c3c2)n(-c2cccnc2C)c(=O)n4C)cn1` [Example 2.13, 3-Methyl-8-(6-methylamino-pyridin-3-yl)-1-(2-methyl-pyridin-3-yl)-1,3-dihydro-imidazo[4,5-c]quinolin-2-one] was tested, and the IC50 (read-out: PI3Kdelta/IC50) was 20 nM.
In the case of `COc1nc(N2CCNCC2)ccc1-n1c(=O)n(C)c2cnc3ccc(-c4cnc(N)c(C(F)(F)F)c4)cc3c21` [Example 9.2, 8-(6-Amino-5-trifluoromethyl-pyridin-3-yl)-1-(2-methoxy-6-piperazin-1-yl-pyridin-3-yl)-3-methyl-1,3-dihydro-imidazo[4,5-c]quinolin-2-one], the IC50 (read-out: PI3Kdelta/IC50) is reported as 15 nM.
In the case of `COc1cc(-c2ccc3ncc4c(c3c2)n(-c2cccnc2C)c(=O)n4C)cnc1C(OC)OC` [Example 2.27, 8-(6-Dimethoxymethyl-5-methoxy-pyridin-3-yl)-3-methyl-1-(2-methyl-pyridin-3-yl)-1,3-dihydro-imidazo[4,5-c]quinolin-2-one], the IC50 (read-out: EPK_PI3Kdelta/IC50) is reported as 406 nM.
For `CNc1ncc(-c2ccc3ncc4c(c3c2)n(-c2ccc(N3CC[C@H](O)C3)nc2C)c(=O)n4C)cc1F` [Example 32.2, 8-(5-Fluoro-6-methylamino-pyridin-3-yl)-1-[6-((S)-3-hydroxy-pyrrolidin-1-yl)-2-methyl-pyridin-3-yl]-3-methyl-1,3-dihydro-imidazo[4,5-c]quinolin-2-one], the IC50 (read-out: EPK_PI3Kdelta/IC50) was 36 nM.
`CCOc1ccc(-c2ccc3ncc4c(c3c2)n(-c2ccc(N3CCNCC3)nc2OC)c(=O)n4C)cn1` [Example 9.1, 8-(6-Ethoxy-pyridin-3-yl)-1-(2-methoxy-6-piperazin-1-yl-pyridin-3-yl)-3-methyl-1,3-dihydro-imidazo[4,5-c]quinolin-2-one] showed an IC50 (read-out: PI3Kdelta/IC50) of 66 nM.
`Cc1nc(N(C)CCO)ccc1-n1c(=O)n(C)c2cnc3ccc(-c4cnc(N)c(C(F)(F)F)c4)cc3c21` [Example 26.1, 8-(6-Amino-5-trifluoromethyl-pyridin-3-yl)-1-{6-[(2-hydroxy-ethyl)-methyl-amino]-2-methyl-pyridin-3-yl}-3-methyl-1,3-dihydro-imidazo[4,5-c]quinolin-2-one] was tested, and the IC50 (read-out: EPK_PI3Kdelta/IC50) was less than 3 nM.
`COc1ccc(-c2ccc3ncc4c(c3c2)n(-c2cccnc2C)c(=O)n4C)cn1` [Example 2.12, 8-(6-Methoxy-pyridin-3-yl)-3-methyl-1-(2-methyl-pyridin-3-yl)-1,3-dihydro-imidazo[4,5-c]quinolin-2-one] gave an IC50 (read-out: PI3Kdelta/IC50) of 32 nM.
`Cc1nc(F)ccc1-n1c(=O)n(C)c2cnc3ccc(-c4cncc(C(C)(C)O)c4)cc3c21` [Example 7.8, 1-(6-Fluoro-2-methyl-pyridin-3-yl)-8-[5-(1-hydroxy-1-methyl-ethyl)-pyridin-3-yl]-3-methyl-1,3-dihydro-imidazo[4,5-c]quinolin-2-one] gave an IC50 (read-out: EPK_PI3Kdelta/IC50) of 38 nM.
`Cc1nc(N2CCC2)ccc1-n1c(=O)n(C)c2cnc3ccc(-c4cncc(C(C)(C)O)c4)cc3c21` [Example 23.3, 1-(6-Azetidin-1-yl-2-methyl-pyridin-3-yl)-8-[5-(1-hydroxy-1-methyl-ethyl)-pyridin-3-yl]-3-methyl-1,3-dihydro-imidazo[4,5-c]quinolin-2-one] was tested, and the IC50 (read-out: EPK_PI3Kdelta/IC50) was 16 nM.
In the case of `COc1ncc(-c2ccc3ncc4c(c3c2)n(-c2ccc(N3CC[C@H](O)C3)nc2C)c(=O)n4C)c(OC)n1` [Example 32.3, 8-(2,4-Dimethoxy-pyrimidin-5-yl)-1-[6-((S)-3-hydroxy-pyrrolidin-1-yl)-2-methyl-pyridin-3-yl]-3-methyl-1,3-dihydro-imidazo[4,5-c]quinolin-2-one], the IC50 (read-out: EPK_PI3Kdelta/IC50) is reported as 11 nM.
`Cc1nc(C(C)(C)O)ccc1-n1c(=O)n(C)c2cnc3ccc(-c4cncc(C5(C#N)CCC5)c4)cc3c21` [Example 31.8, 1-(5-{1-[6-(1-Hydroxy-1-methyl-ethyl)-2-methyl-pyridin-3-yl]-3-methyl-2-oxo-2,3-dihydro-1H-imidazo[4,5-c]quinolin-8-yl}-pyridin-3-yl)-cyclobutanecarbonitrile] showed an IC50 (read-out: EPK_PI3Kdelta/IC50) of 7 nM.
`CCOc1ccc(-c2ccc3ncc4c(c3c2)n(-c2ccc(F)nc2C)c(=O)n4C)cn1` [Example 7.3, 8-(6-Ethoxy-pyridin-3-yl)-1-(6-fluoro-2-methyl-pyridin-3-yl)-3-methyl-1,3-dihydro-imidazo[4,5-c]quinolin-2-one] gave an IC50 (read-out: PI3Kdelta/IC50) of 71 nM.
Work on `Cc1nc(N2CC[C@H](O)C2)ccc1-n1c(=O)n(C)c2cnc3ccc(-c4cncc(OC(C)C)c4)cc3c21` [Example 32.8, 1-[6-((S)-3-Hydroxy-pyrrolidin-1-yl)-2-methyl-pyridin-3-yl]-8-(5-isopropoxy-pyridin-3-yl)-3-methyl-1,3-dihydro-imidazo[4,5-c]quinolin-2-one] yielded an IC50 (read-out: EPK_PI3Kdelta/IC50) of 39 nM.
`Cc1ncccc1-n1c(=O)n(C)c2cnc3ccc(-c4ccc(OCCCN(C)C)nc4)cc3c21` [Example 2.10, 8-[6-(3-Dimethylamino-propoxy)-pyridin-3-yl]-3-methyl-1-(2-methyl-pyridin-3-yl)-1,3-dihydro-imidazo[4,5-c]quinolin-2-one] was tested, and the IC50 (read-out: PI3Kdelta/IC50) was 855 nM.
With `COc1ncccc1-n1c(=O)n(C)c2cnc3ccc(-c4ccc(C(N)=O)cc4)cc3c21` [Example 1.6, 4-[1-(2-Methoxy-pyridin-3-yl)-3-methyl-2-oxo-2,3-dihydro-1H-imidazo[4,5-c]quinolin-8-yl]-benzamide] the IC50 (read-out: PI3Kdelta/IC50) was 163 nM.
